These are literature values, as cited in patent publication US20110256545A1, “mRNA expression-based prognostic gene signature for non-small cell lung cancer” (priority 2010, published 2011).

“Also recorded” adds a separate entry of the source.

The series deals with NCI-60 cell lines. The conditions noted are these: the value is the cell line; for Resistant lung cancer cell lines: NCI-60 lung cancer (LC) cell lines classed as resistant to the agent; for Sensitive lung cancer cell lines: NCI-60 lung cancer (LC) cell lines classed as sensitive to the agent.

For the molecule `N.N.O=C([O-])C1(C(=O)[O-])CCC1.[Pt+2]` [Carboplatin], the “Resistant lung cancer cell lines” value is “LC: EKVX” and the “Sensitive lung cancer cell lines” value is on record as “LC: NCI_H460; also recorded: LC: NCI_H522”.

For the molecule `N.N.[Cl][Pt][Cl]` [Cisplatin], the “Resistant lung cancer cell lines” value was “LC: NCI_H226; also recorded: LC: EKVX” and the “Sensitive lung cancer cell lines” value is on record as “LC: HOP_62; also recorded: LC: NCI_H460”.

With `COc1cc([C@@H]2c3cc4c(cc3[C@@H](O[C@@H]3O[C@@H]5CO[C@@H](C)O[C@H]5[C@H](O)[C@H]3O)[C@H]3COC(=O)[C@H]23)OCO4)cc(OC)c1O` [Etoposide], the “Resistant lung cancer cell lines” value is on record as “LC: EKVX” and the “Sensitive lung cancer cell lines” value is “LC: HOP_62; also recorded: LC: NIC_H460”.

Consider `CC(=O)O[C@H]1C(=O)[C@@]2(C)[C@H]([C@H](OC(=O)c3ccccc3)[C@]3(O)C[C@H](OC(=O)[C@H](O)[C@@H](NC(=O)c4ccccc4)c4ccccc4)C(C)=C1C3(C)C)[C@]1(OC(C)=O)CO[C@@H]1C[C@@H]2O` [Paclitaxel], for which the “Resistant lung cancer cell lines” value was “LC: HOP_92; also recorded: LC_EKVX” and the “Sensitive lung cancer cell lines” value was “LC: NCI_H460; also recorded: LC: NCI_H522”.
